Reference: PubChem BioAssay (NCI)
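Briefly, cells in 96-well plates were exposed to five compound concentrations for 48 h, and endpoints were estimated by linear interpolation. TGI: concentration producing complete growth inhibition.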

How the values were obtained:
Experiment in all cases: NCI-60 cell line screen, 48 h
RPMI-8226 leukemia = system: RPMI-8226 leukemia
CAKI-1 renal = system: CAKI-1 renal
NCI-H460 lung = system: NCI-H460 lung
MALME-3M melanoma = system: MALME-3M melanoma
HL-60(TB) leukemia = system: HL-60(TB) leukemia
SW-620 colon = system: SW-620 colon
SR leukemia = system: SR leukemia
IGROV1 ovarian = system: IGROV1 ovarian
SK-OV-3 ovarian = system: SK-OV-3 ovarian
NCI-H522 lung = system: NCI-H522 lung
HCT-15 colon = system: HCT-15 colon
CCRF-CEM leukemia = system: CCRF-CEM leukemia
DU-145 prostate = system: DU-145 prostate
UACC-62 melanoma = system: UACC-62 melanoma
COLO 205 colon = system: COLO 205 colon
NCI-H23 lung = system: NCI-H23 lung
SNB-19 CNS = system: SNB-19 CNS
SK-MEL-28 melanoma = system: SK-MEL-28 melanoma
KM12 colon = system: KM12 colon
M14 melanoma = system: M14 melanoma
OVCAR-4 ovarian = system: OVCAR-4 ovarian
MOLT-4 leukemia = system: MOLT-4 leukemia
A498 renal = system: A498 renal
ACHN renal = system: ACHN renal
TK-10 renal = system: TK-10 renal
MDA-MB-435 = system: MDA-MB-435
U251 CNS = system: U251 CNS
SF-268 CNS = system: SF-268 CNS
T-47D breast = system: T-47D breast
UO-31 renal = system: UO-31 renal
MCF7 breast = system: MCF7 breast
MDA-MB-231 breast = system: MDA-MB-231 breast
SK-MEL-5 melanoma = system: SK-MEL-5 melanoma
HOP-62 NSCLC = system: HOP-62 NSCLC
HS 578T breast = system: HS 578T breast
NCI-H226 lung = system: NCI-H226 lung
K-562 leukemia = system: K-562 leukemia
OVCAR-3 ovarian = system: OVCAR-3 ovarian
NCI/ADR-RES ovarian = system: NCI/ADR-RES ovarian
786-0 renal = system: 786-0 renal
UACC-257 melanoma = system: UACC-257 melanoma
A549 NSCLC = system: A549 NSCLC
SF-295 CNS = system: SF-295 CNS
HOP-92 NSCLC = system: HOP-92 NSCLC
HCC-2998 colon = system: HCC-2998 colon
OVCAR-5 ovarian = system: OVCAR-5 ovarian
SK-MEL-2 melanoma = system: SK-MEL-2 melanoma
LOX IMVI melanoma = system: LOX IMVI melanoma
SNB-75 CNS = system: SNB-75 CNS
SN12C renal = system: SN12C renal
SF-539 CNS = system: SF-539 CNS
MDA-N = system: MDA-N
PC-3 prostate = system: PC-3 prostate
RXF 393 renal = system: RXF 393 renal
HT29 colon = system: HT29 colon
EKVX NSCLC = system: EKVX NSCLC
HCT-116 colon = system: HCT-116 colon
OVCAR-8 ovarian = system: OVCAR-8 ovarian

## CN(CCc1ccccn1)C(=S)N/N=C/c1ccccn1
RPMI-8226 leukemia
  TGI: 0.0424 µM
CAKI-1 renal
  TGI: 17.2 µM
NCI-H460 lung
  TGI: 2.07 µM
MALME-3M melanoma
  TGI: 8.81 µM
HL-60(TB) leukemia
  TGI: < 0.01 µM
SW-620 colon
  TGI: > 100 µM
SR leukemia
  TGI: < 0.01 µM
IGROV1 ovarian
  TGI: 1.21 µM
SK-OV-3 ovarian
  TGI: > 51.3 µM
NCI-H522 lung
  TGI: 0.29 µM
HCT-15 colon
  TGI: 35.6 µM
CCRF-CEM leukemia
  TGI: < 0.01 µM
DU-145 prostate
  TGI: > 100 µM
UACC-62 melanoma
  TGI: 15.7 µM
COLO 205 colon
  TGI: 0.727 µM
NCI-H23 lung
  TGI: 13.8 µM
SNB-19 CNS
  TGI: > 100 µM
SK-MEL-28 melanoma
  TGI: > 100 µM
KM12 colon
  TGI: 17.1 µM
M14 melanoma
  TGI: 2.34 µM
OVCAR-4 ovarian
  TGI: 21.4 µM
MOLT-4 leukemia
  TGI: < 0.025 µM
A498 renal
  TGI: 1.3 µM
ACHN renal
  TGI: 1.41 µM
TK-10 renal
  TGI: 0.668 µM
MDA-MB-435
  TGI: 38.1 µM
U251 CNS
  TGI: > 94.9 µM
SF-268 CNS
  TGI: > 100 µM
T-47D breast
  TGI: 22.2 µM
UO-31 renal
  TGI: 17.8 µM
MCF7 breast
  TGI: > 100 µM
MDA-MB-231 breast
  TGI: 0.982 µM
SK-MEL-5 melanoma
  TGI: 0.902 µM
HOP-62 NSCLC
  TGI: 3.48 µM
HS 578T breast
  TGI: > 87.2 µM
NCI-H226 lung
  TGI: 0.255 µM
K-562 leukemia
  TGI: 0.0493 µM
OVCAR-3 ovarian
  TGI: 25.9 µM
NCI/ADR-RES ovarian
  TGI: 18 µM
786-0 renal
  TGI: > 38.8 µM
UACC-257 melanoma
  TGI: 0.895 µM
A549 NSCLC
  TGI: 3.75 µM
SF-295 CNS
  TGI: > 43.5 µM
HOP-92 NSCLC
  TGI: 3.66 µM
HCC-2998 colon
  TGI: 37.7 µM
OVCAR-5 ovarian
  TGI: 44.6 µM
SK-MEL-2 melanoma
  TGI: 0.27 µM
LOX IMVI melanoma
  TGI: 13.6 µM
SNB-75 CNS
  TGI: > 100 µM
SN12C renal
  TGI: > 36.2 µM
SF-539 CNS
  TGI: 0.365 µM
MDA-N
  TGI: 37.4 µM
PC-3 prostate
  TGI: > 58.1 µM
RXF 393 renal
  TGI: 2.98 µM
HT29 colon
  TGI: 43.1 µM

## O=C1C(=O)C(CCCO)(CCCO)CCCCCCCCC1(CCCO)CCCO
RPMI-8226 leukemia
  TGI: 32 µM
CAKI-1 renal
  TGI: > 100 µM
EKVX NSCLC
  TGI: > 100 µM
NCI-H460 lung
  TGI: > 100 µM
MALME-3M melanoma
  TGI: > 100 µM
HL-60(TB) leukemia
  TGI: 29.9 µM
HCT-116 colon
  TGI: > 100 µM
SW-620 colon
  TGI: > 100 µM
SR leukemia
  TGI: > 100 µM
IGROV1 ovarian
  TGI: > 100 µM
SK-OV-3 ovarian
  TGI: > 100 µM
NCI-H522 lung
  TGI: > 100 µM
HCT-15 colon
  TGI: > 100 µM
DU-145 prostate
  TGI: > 100 µM
UACC-62 melanoma
  TGI: > 100 µM
COLO 205 colon
  TGI: > 100 µM
NCI-H23 lung
  TGI: > 100 µM
SNB-19 CNS
  TGI: > 100 µM
SK-MEL-28 melanoma
  TGI: > 100 µM
KM12 colon
  TGI: > 100 µM
M14 melanoma
  TGI: > 100 µM
OVCAR-4 ovarian
  TGI: > 100 µM
A498 renal
  TGI: > 100 µM
ACHN renal
  TGI: > 100 µM
TK-10 renal
  TGI: > 100 µM
MDA-MB-435
  TGI: > 100 µM
U251 CNS
  TGI: > 100 µM
SF-268 CNS
  TGI: > 100 µM
T-47D breast
  TGI: > 100 µM
UO-31 renal
  TGI: 60.4 µM
MCF7 breast
  TGI: > 100 µM
SK-MEL-5 melanoma
  TGI: > 100 µM
HOP-62 NSCLC
  TGI: > 100 µM
HS 578T breast
  TGI: > 100 µM
NCI-H226 lung
  TGI: > 100 µM
K-562 leukemia
  TGI: 69.6 µM
OVCAR-3 ovarian
  TGI: > 100 µM
NCI/ADR-RES ovarian
  TGI: > 100 µM
786-0 renal
  TGI: > 100 µM
UACC-257 melanoma
  TGI: > 100 µM
OVCAR-8 ovarian
  TGI: > 100 µM
A549 NSCLC
  TGI: > 100 µM
SF-295 CNS
  TGI: > 100 µM
HOP-92 NSCLC
  TGI: > 100 µM
HCC-2998 colon
  TGI: > 100 µM
OVCAR-5 ovarian
  TGI: > 100 µM
SK-MEL-2 melanoma
  TGI: > 100 µM
LOX IMVI melanoma
  TGI: > 100 µM
SNB-75 CNS
  TGI: > 100 µM
SN12C renal
  TGI: > 100 µM
SF-539 CNS
  TGI: > 100 µM
MDA-N
  TGI: > 100 µM
PC-3 prostate
  TGI: > 100 µM
RXF 393 renal
  TGI: 68.8 µM
HT29 colon
  TGI: > 100 µM
